31 molecules from US9062072B2, “Inhibitors of HIF and angiogenesis” (Emory University, priority 2010, dated 2015) can be followed below.

Each structure is given as a SMILES string. Where two headings read alike, the source gives them in different places. Where only a bound is given, the exact number is not on record here.

The test relates to HIF-1-mediated transcription. In words: HIF-1-mediated transcription under hypoxia, LN229-HRE-Lux luciferase reporter assay. It counts as cell-based, human. To be noted: 24 h, LN229-HRE-Lux cells, hypoxia (1% O2), 24 h. The method, then: The synthesized analogues were evaluated for their potential to inhibit HIF-1-mediated transcription under hypoxia (1% O2) using a human glioma cell line LN229-HRE-Lux, which stably expresses a hypoxia-responsive luciferase reporter gene (Table 1-9). […] The compounds were tested in single (n=1) or multiple (n>1) independent experiments each carried out in quadruplicate.
LN229-HRE-luciferase human glioblastoma cells were used to perform the assay. […] 48-well plates were seeded with 3.10^4 cells per well and incubated under normoxic conditions for 24 h. Cells were then pre-treated with different concentrations of KCN-1 or its analogues for 1 h and then transferred to hypoxic conditions. After 24 h, media was aspirated, cells were lysed and reporter activity was measured in the lysate using Luciferase Assay System (Promega, Madison, Wis.) with 20/20^n Luminometer (Promega).
(In general: In a reporter assay the amount or activity of a reporter protein is the signal.)

The mark [1] stands for this setting: Homo sapiens, Table 1, read-out: IC50.
[2] abbreviates: Homo sapiens, Table 2, read-out: IC50.
The mark [3] stands for this setting: Homo sapiens, Table 3, read-out: IC50.
The mark [4] stands for this setting: Homo sapiens, Table 4, read-out: IC50.
The mark [5] stands for this setting: Homo sapiens, Table 5, read-out: IC50.
Setting [6] is: Homo sapiens, Table 6, read-out: IC50.

On to `COc1ccc(NCc2ccc3c(c2)C=CC(C)(C)O3)cc1OC` [Compound 2a, (3,4-Dimethoxy-phenyl)-(2,2-dimethyl-2H-chromen-6-ylmethyl)-amine], for which the concentration for half-maximal inhibition (IC50) under setting [1] was 3 µM.

On to `Cc1ccc(NCc2ccc3c(c2)C=CC(C)(C)O3)c(C)c1` [Compound 2c, (2,2-Dimethyl-2H-chromen-6-ylmethyl)-(2,4-dimethyl-phenyl)-amine], for which, under setting [1], the IC50 was over 25 µM.

As to `CC1(C)C=Cc2cc(CNc3ccc(C(=O)O)cc3)ccc2O1` [Compound 2d, 4-[(2,2-Dimethyl-2H-chromen-6-ylmethyl)-amino]-benzoic acid], the IC50 under setting [1] is over 25 µM.

As for `CC1(C)C=Cc2cc(CNc3ccccc3Br)ccc2O1` [Compound 2e, (2-Bromo-phenyl)-(2,2-dimethyl-2H-chromen-6-ylmethyl)-amine], the half-inhibitory concentration (IC50) under setting [1] was over 25 µM.

For the molecule `CC1(C)C=Cc2cc(CNc3ccccc3F)ccc2O1` [Compound 2f, (2,2-Dimethyl-2H-chromen-6-ylmethyl)-(2-fluoro-phenyl)-amine], the half-maximal inhibitory concentration (IC50) under setting [1] is over 25 µM.

`COc1ccc(N(C)Cc2ccc3c(c2)C=CC(C)(C)O3)cc1OC` [Compound 3a, (3,4-Dimethoxy-phenyl)-(2,2-dimethyl-2H-chromen-6-ylmethyl)-methylamine]: under setting [1], the IC50 amounted to 5 µM.

With `CN(Cc1ccc2c(c1)C=CC(C)(C)O2)c1ccccn1` [Compound 3b, (2,2-Dimethyl-2H-chromen-6-ylmethyl)-methyl-pyridin-2-yl-amine], under setting [1], the IC50 was found to be 8.4 µM.

Take `Cc1ccc(N(C)Cc2ccc3c(c2)C=CC(C)(C)O3)c(C)c1` [Compound 3c, (2,2-Dimethyl-2H-chromen-6-ylmethyl)-(2,4-dimethyl-phenyl)-methyl-amine]: the IC50 worked out at 2.6 µM under setting [1] and 2.6 µM (Homo sapiens, read-out: IC50).

For the molecule `COc1ccc(S(=O)(=O)N(Cc2ccc3c(c2)C=CC(C)(C)O3)C(C)C)cc1OC` [Compound 5a, N-(2,2-Dimethyl-2H-chromen-6-ylmethyl)-N-isopropyl-3,4-dimethoxy-benzenesulfonamide], the 50% inhibitory concentration (IC50) under setting [2] came to 3.1 µM.

`C#CCN(Cc1ccc2c(c1)C=CC(C)(C)O2)S(=O)(=O)c1ccc(OC)c(OC)c1` [Compound 5b, N-(2,2-Dimethyl-2H-chromen-6-ylmethyl)-3,4-dimethoxy-N-prop-2-ynyl-benzenesulfonamide]: the IC50 by setting is: under setting [2], 1.3 µM; (Homo sapiens, read-out: IC50) 1.3 µM.

Regarding `CCCCN(Cc1ccc2c(c1)C=CC(C)(C)O2)S(=O)(=O)c1ccc(OC)c(OC)c1` [Compound 5c, N-Butyl-N-(2,2-dimethyl-2H-chromen-6-ylmethyl)-3,4-dimethoxy-benzenesulfonamide], the IC50 is 3.3 µM under setting [2] and 3.3 µM (Homo sapiens, read-out: IC50).

Consider `COc1ccc(S(=O)(=O)N(Cc2ccc3c(c2)C=CC(C)(C)O3)C(C)(C)C)cc1OC` [Compound 5d, N-tert-Butyl-N-(2,2-dimethyl-2H-chromen-6-ylmethyl)-3,4-dimethoxy-benzenesulfonamide], for which the concentration for half-maximal inhibition (IC50) is, setting by setting: under setting [2], 3.5 µM; (Homo sapiens, read-out: IC50) 3.5 µM.

On to `C=CCN(Cc1ccc2c(c1)C=CC(C)(C)O2)S(=O)(=O)c1ccc(OC)c(OC)c1` [Compound 5e, N-Allyl-N-(2,2-dimethyl-2H-chromen-6-ylmethyl)-3,4-dimethoxy-benzenesulfonamide], for which the IC50 under setting [2] amounted to 3.4 µM.

For `COc1ccc(S(=O)(=O)N(CCC(C)C)Cc2ccc3c(c2)C=CC(C)(C)O3)cc1OC` [Compound 5f, N-(2,2-Dimethyl-2H-chromen-6-ylmethyl)-3,4-dimethoxy-N-(3-methyl-butyl)-benzenesulfonamide], the IC50 under setting [2] was found to be 1.6 µM.

On to `COc1ccc(S(=O)(=O)N(Cc2ccc3c(c2)C=CC(C)(C)O3)C2CCCC2)cc1OC` [Compound 5g, N-Cyclopentyl-N-(2,2-dimethyl-2H-chromen-6-ylmethyl)-3,4-dimethoxy-benzenesulfonamide], for which the half-maximal inhibitory concentration (IC50) was 0.5 µM under setting [2] and 1.6 µM (Homo sapiens, read-out: IC50).

With `COc1ccc(S(=O)(=O)N(Cc2ccc3c(c2)C=CC(C)(C)O3)C2CC2)cc1OC` [Compound 5h, Cyclopropyl-N-(2,2-dimethyl-2H-chromen-6-ylmethyl)-3,4-dimethoxy-benzenesulfonamide], the IC50 (Table 2, read-out: IC50) stood at 1.5 µM.

Regarding `COc1ccc(S(=O)(=O)N(Cc2ccc3c(c2)C=CC(C)(C)O3)C2CCCCC2)cc1OC` [Compound 5i, N-Cyclohexyl-N-(2,2-dimethyl-2H-chromen-6-ylmethyl)-3,4-dimethoxy-benzenesulfonamide], under setting [2], the IC50 came to 4 µM.

Consider `COc1ccc(S(=O)(=O)N(Cc2ccc3c(c2)C=CC(C)(C)O3)c2ccccc2)cc1` [Compound 5j, N-((2,2-Dimethyl-2H-chromen-6-yl)methyl)-4-methoxy-N-phenylbenzenesulfonamide], for which the IC50 under setting [3] amounted to 0.6 µM.

Turning to `Cc1cc(C)cc(S(=O)(=O)N(Cc2ccc3c(c2)C=CC(C)(C)O3)c2ccccc2)c1` [Compound 5k, N-((2,2-Dimethyl-2H-chromen-6-yl)methyl)-3,5-dimethyl-N-phenylbenzenesulfonamide], the IC50 was 0.5 µM under setting [3] and 0.6 µM (Homo sapiens, read-out: IC50).

With `CC1(C)C=Cc2cc(CN(c3ccccc3)S(=O)(=O)c3cc(Cl)ccc3Cl)ccc2O1` [Compound 5l, 2,5-Dichloro-N-((2,2-dimethyl-2H-chromen-6-yl)methyl)-N-phenylbenzenesulfonamide], the IC50 under setting [3] was 2.1 µM.

For the molecule `CC1(C)C=Cc2cc(CN(c3ccccc3)S(=O)(=O)c3ccc(Br)cc3OC(F)(F)F)ccc2O1` [Compound 5m, 4,4-Bromo-N-((2,2-dimethyl-2H-chromen-6-yl)methyl)-N-phenyl-2-(trifluoromethoxy)benzenesulfonamide], the half-maximal inhibitory concentration (IC50) under setting [3] was over 25 µM.

For `CCC1(C)C=Cc2cc(CN(c3ccccc3)S(=O)(=O)c3ccc(OC)c(OC)c3)ccc2O1` (stereo not shown) [Compound 10, N-((2-Ethyl-2-methyl-2H-chromen-6-yl)methyl)-3,4-dimethoxy-N-phenylbenzenesulfonamide], the IC50 came out at 3.1 µM under setting [4] and 2.2 µM (Homo sapiens, read-out: IC50).

`COc1ccc(S(=O)(=O)N(Cc2cnc3ccccc3c2)c2ccccc2)cc1OC` [Compound 13, 3,4-Dimethoxy-N-phenyl-N-(quinolin-3-ylmethyl)benzenesulfonamide]: the concentration for half-maximal inhibition (IC50) is, setting by setting: under setting [4], 1.3 µM; (Homo sapiens, read-out: IC50) 3.5 µM.

In the case of `COc1ccc(S(=O)(=O)N(Cc2ccc3c(c2)CC(C)(C)O3)c2ccccc2)cc1OC` [Compound 16a, N-((2,2-Dimethyl-2,3-dihydrobenzofuran-5-yl)methyl)-3,4-dimethoxy-N-phenylbenzenesulfonamide], the IC50 under setting [5] was 0.5 µM.

As for `COc1ccc(S(=O)(=O)N(Cc2ccc3c(c2)CC(C)(C)O3)C2CCCCCC2)cc1OC` [Compound 16b, N-Cycloheptyl-N-((2,2-dimethyl-2,3-dihydrobenzofuran-5-yl)methyl)-3,4dimethoxybenzenesulfonamide], the IC50 by setting is: under setting [5], 9.1 µM; (Homo sapiens, read-out: IC50) 9.1 µM.

In the case of `COc1ccc(S(=O)(=O)N(Cc2ccc3c(c2)CC(C)(C)O3)C(C)C)cc1OC` [Compound 16c, N-((2,2-dimethyl-2,3-dihydrobenzofuran-5-yl)methyl)-N-isopropyl-3,4-dimethoxybenzenesulfonamide], under setting [5], the half-maximal inhibitory concentration (IC50) was found to be 1.5 µM.

Turning to `CCCCN(Cc1ccc2c(c1)CC(C)(C)O2)S(=O)(=O)c1ccc(OC)c(OC)c1` [Compound 16d, N-Butyl-N-((2,2-dimethyl-2,3-dihydrobenzofuran-5-yl)methyl)-3,4-dimethoxybenzenesulfonamide], the IC50 under setting [5] was 0.6 µM.

As to `COc1ccc(S(=O)(=O)N(Cc2ccc3c(c2)CC(C)(C)O3)C2CCCCC2)cc1OC` [Compound 16e, N-Cyclohexyl-N-((2,2-dimethyl-2,3-dihydrobenzofuran-5-yl)methyl)-3,4-dimethoxybenzenesulfonamide], the IC50 by setting is: (Homo sapiens, Table 5) 8.2 µM; (Homo sapiens) 8.2 µM.

For the molecule `COc1ccc(S(=O)(=O)N(Cc2ccc3c(c2)CC(C)(C)O3)C2CCCC2)cc1OC` [Compound 16f, N-Cyclopentyl-N-((2,2-dimethyl-2,3-dihydrobenzofuran-5-yl)methyl)-3,4-dimethoxybenzenesulfonamide], the half-inhibitory concentration (IC50) is, setting by setting: under setting [5], 0.4 µM; (Homo sapiens, read-out: IC50) 0.4 µM.

Turning to `COc1ccc(S(=O)(=O)N(Cc2cnc3c(c2)C=CC(C)(C)O3)c2ccccc2)cc1OC` [Compound 20a, N-((2,2-Dimethyl-2H-pyrano[2,3-b]pyridin-6-yl)methyl)-3,4-dimethoxy-N-phenylbenzenesulfonamide], the 50% inhibitory concentration (IC50) is, setting by setting: under setting [6], 2.5 µM; (Homo sapiens, read-out: IC50) 2.5 µM.

Consider `COc1ccc(S(=O)(=O)N(Cc2cnc3c(c2)C=CC(C)(C)O3)C2CCCCC2)cc1OC` [Compound 20b, N-Cyclohexyl-N-((2,2-dimethyl-2H-pyrano[2,3-b]pyridin-6-yl)methyl)-3,4-dimethoxybenzenesulfonamide], for which the IC50 under setting [6] was over 25 µM.

Broadly, the IC50 is the concentration needed to halve the response being measured.
